For series [1], the system named is Human coronavirus OC43. Nature of the series: microbe, parasite or virus in culture. The note with it: Betacoronavirus 1, MRC5, 120 h.
Series [2] deals with Replicase polyprotein 1ab (Severe acute respiratory syndrome coronavirus 2, UniProt P0DTD1). Nature of the series: Inhibition of SARS CoV-2 main protease preincubated for 30 min followed by substrate addition and measured after 60 mins by fluorescence assay.
Series [3] can be described thus: Cmax in rat at 10 mg/kg, po. The format is ADME, organism-based. The note with it: in vivo. The arrangement: route po.
In series [4] the test system is Human coronavirus OC43. Nature of the series: In vivo antiviral activity against HCoV-OC43 infected in mouse assessed as organism survival rate at 25 mg/kg,ip for 7 days. The format is functional. The note with it: time 7 day.
Series [5] can be described thus: Stability of compound in human plasma assessed as compound remaining and measured after 2 hrs. The class given is ADME, cell-free.
Series [6] in a line: Stability of compound in rat plasma assessed as compound remaining and measured after 2 hrs. The format is ADME, cell-free.
Series [7] is described as follows: Cmax in mouse at 10 mg/kg, po. The format is ADME, organism-based. Further details: route po. The note with it: in vivo.
Series [8] is described as follows: Oral bioavailability in rat at 10 mg/kg. The class given is ADME, organism-based. The note with it: in vivo.
A short description of series [9]: Toxicity in mouse infected with HCoV-OC43 assessed as body weight change at 12.5 to 50 mg/kg, ip for 7 days. The note with it: in vivo, 168 h, dose 12.5-50 mg/kg, time 7 day. The format is organism-based.
In series [10] the test system is Human coronavirus OC43. Nature of the series: In vivo antiviral activity against HCoV-OC43 infected in mouse assessed as organism survival rate at 12.5 to 50 mg/kg,ip for 7 days. Particulars: dose 12.5-50 mg/kg, time 7.0 day. The class given is functional, organism-based.
Series [11] can be described thus: AUC in rat at 10 mg/kg, po. The arrangement: dose 10 mg/kg, route po. The note with it: in vivo. The format is ADME, organism-based.
The nature of series [12]: Half life in rat 2 mg/kg, iv. The class given is ADME, organism-based. Particulars: in vivo.
Series [13] in a line: Oral bioavailability in mouse at 10 mg/kg. The format is ADME, organism-based. The note with it: in vivo.
Series [14] can be described thus: Stability of compound in mouse plasma assessed as compound remaining and measured after 2 hrs. The format is ADME, cell-free.
The next series deals with SARS-CoV-2. Nature of the series: microbe, parasite or virus in culture. Particulars: Severe acute respiratory syndrome coronavirus 2, Vero, 24 h.
Series [15] is described as follows: AUC in mouse at 10 mg/kg, po. The note with it: in vivo. The format is ADME, organism-based. The arrangement: route po.
In series [16] the test system is Human coronavirus OC43. Nature of the series: In vivo antiviral activity against HCoV-OC43 infected in mouse assessed as organism survival rate at 50 mg/kg,ip for 7 days. Particulars: time 7 day. The class given is functional.
A short description of series [17]: Volume of distribution at steady state in rat at 2 mg/kg, iv. The format is ADME, organism-based. The note with it: in vivo, read-out: Vdss.
A short description of series [18]: Clearance in rat at 2 mg/kg, iv. The class given is ADME, organism-based. The note with it: in vivo.
Series [19] has as its system Human coronavirus OC43. Nature of the series: In vivo antiviral activity against HCoV-OC43 infected in mouse assessed as organism survival rate at 12.5 mg/kg,ip for 7 days. Particulars: time 7 day. The class given is functional.
Series [20] is described as follows: Half life in mouse 3 mg/kg, iv. The class given is ADME, organism-based. The note with it: in vivo.
A short description of series [21]: Volume of distribution at steady state in mouse at 3 mg/kg, iv. The format is ADME, organism-based. Particulars: in vivo, read-out: Vdss.
The nature of series [22]: Clearance in mouse at 3 mg/kg, iv. The class given is ADME, organism-based. Particulars: in vivo.

Regarding `CC(C)(C)[C@H](NC(=O)C(F)(F)F)C(=O)N1C[C@@H]2C[C@@H]2[C@H]1C(=O)N[C@H](C#N)C[C@@H]1CCNC1=O`, in the series with Human coronavirus OC43 [1], a half-maximal response (EC50) required 5810 nM. The 50% inhibitory concentration (IC50) (usually the concentration that inhibits the measured activity by half) in [2] is 356 nM.
For the molecule `CC(C)(C)NC(=O)C(=O)[C@H](C[C@@H]1CCNC1=O)NC(=O)[C@@H]1[C@H]2CCC[C@H]2CN1C(=O)[C@@H](NC(=O)C(F)(F)F)C1CCCCC1`, the Cmax (commonly the maximum level reached in the sampled fluid or tissue) amounted to 3.79 µM in series [3] and 4810 nM in series [7]. Further, the Activity in the series on Human coronavirus OC43 [4] was 83.3%; in series [9], “Toxic”; in the series with Human coronavirus OC43 [10], “Dose-Dependent Effect”; in the series on Human coronavirus OC43 [16] it was 100%; with Human coronavirus OC43 [19] it was 66.6%. Moreover, the Stability in series [5] came out at 102%; in series [6], 96%; in [14], 106%. Also, the bioavailability (as a rule, dose-corrected exposure relative to a reference, in per cent) came out at 37.4% in series [8] and 32% in series [13]. In addition, the results for the EC50 with Human coronavirus OC43 [1] and in the series with SARS-CoV-2 were 146 nM and 53 nM, respectively. The AUC (in general, the area under the concentration-time curve, a measure of exposure) is 37.4 µM·h in [11] and 33 µM·h in [15]. The molecule further came in with an IC50 in series [2] of 34 nM. The half-life (usually the time in which the quantity being followed falls by half) in series [12] was 262 min. In addition, in [17], the Vd was 0.929 L/kg. Moreover, in series [18], the clearance (as a rule, the volume of plasma or blood freed of the substance per unit of time) was determined as 2.55 mL/min/kg.
Turning to `CC(=O)N[C@H](C(=O)N1C[C@@H]2CCC[C@@H]2[C@H]1C(=O)N[C@H](C#N)C[C@@H]1CCNC1=O)C1CCCCC1`, in the series with Human coronavirus OC43 [1], it took 2780 nM to reach a half-maximal effect (EC50). In series [2], this molecule displayed an IC50 of 551 nM.
`N#C[C@H](C[C@@H]1CCNC1=O)NC(=O)[C@@H]1[C@H]2CCC[C@H]2CN1C(=O)[C@@H](NC(=O)C(F)(F)F)c1ccc(F)cc1`: in the series with Human coronavirus OC43 [1], the EC50 (as a rule, the concentration at which the effect is half-maximal) came to 677 nM. This molecule also came in with a half-inhibitory concentration (IC50) in [2] of 165 nM.
Regarding `N#C[C@H](Cc1n[nH]c2ccccc12)NC(=O)[C@@H]1[C@H]2CCC[C@H]2CN1C(=O)[C@@H](NC(=O)C(F)(F)F)C1CCCCC1`, the half-maximal effective concentration (EC50) in the series on Human coronavirus OC43 [1] worked out at 4890 nM. For the same molecule, the IC50 in series [2] was more than 1000 nM.
Consider `CC(C)(C)[C@H](NC(=O)C(F)(F)F)C(=O)N1C[C@H]2[C@@H]([C@H]1C(=O)N[C@H](C#N)C[C@@H]1CCNC1=O)C2(C)C`, for which the values for the Cmax in [3] and in series [7] were 2.14 µM and 2720 nM, respectively. Further, the Stability is recorded as 84% in series [6] and 91% in series [14]. The half-life was 42.8 min in series [20] and 46.2 min in series [12]. Further, the bioavailability in [8] worked out at 29.9%; in series [13], 32.7%. For the same molecule, the Vd worked out at 0.456 L/kg in series [21] and 1.24 L/kg in series [17]. The figures for the clearance in series [22] and in series [18] were 30.2 mL/min/kg and 42 mL/min/kg, respectively. Besides, the exposure (AUC) stood at 2.38 µM·h in series [11] and 3.58 µM·h in series [15]. Moreover, the Activity with Human coronavirus OC43 [16] is 100%.
In the case of `N#C[C@H](C[C@@H]1CCNC1=O)NC(=O)[C@@H]1[C@H]2CCC[C@H]2CN1C(=O)[C@@H](NC(=O)C(F)(F)F)C1CCCCC1`, the values for the Cmax in [3] and in [7] were 3.47 µM and 1160 nM, respectively. Moreover, the Stability was 108% in series [5] and 100% in series [14]. Besides, the half-life in series [20] was 11.3 min; in [12], 22.7 min. The bioavailability in series [8] worked out at 57.6%; in series [13] it was 14.2%. The Vd in [21] was determined as 1.01 L/kg; in [17], 1.34 L/kg. The results for the EC50 with Human coronavirus OC43 [1] and in the series on SARS-CoV-2 were 112 nM and 43 nM, respectively. Also, the clearance in [22] was 92.2 mL/min/kg; in series [18], 62.7 mL/min/kg. In addition, the exposure (AUC) in series [11] amounted to 2.92 µM·h; in series [15], 0.478 µM·h. This molecule also showed an IC50 in [2] of 47 nM.
`CC(C)(C)NC(=O)C(=O)[C@H](C[C@@H]1CCNC1=O)NC(=O)[C@@H]1[C@H]2CCC[C@H]2CN1C(=O)[C@@H](NC(=O)C(F)(F)F)C1CC2(CCC2)C1` had an EC50 with Human coronavirus OC43 [1] of 444 nM. In [2], this molecule gave an IC50 of 77 nM.
`CC(C)(C)NC(=O)C(=O)[C@H](C[C@@H]1CCNC1=O)NC(=O)[C@@H]1[C@H]2CCC[C@H]2CN1C(=O)[C@@H](NC(=O)C(F)(F)F)C1CCCC1`: the Cmax in [7] turned out to be 4800 nM. The same molecule gave a half-life in series [20] of 196 min. Moreover, in series [21], the Vd was 0.911 L/kg. Also, the midpoint of the response in the series with Human coronavirus OC43 [1], the EC50, lay at 421 nM. This molecule showed a clearance in series [22] of 5.06 mL/min/kg. For the same molecule, the bioavailability in series [13] stood at 30.8%. Also, the AUC in series [15] came out at 16.8 µM·h.
On to `CC(C)(C)[C@H](NC(=O)C(F)(F)F)C(=O)N1C[C@@H]2CCC[C@@H]2[C@H]1C(=O)N[C@H](C#N)C[C@@H]1CCNC1=O`, for which the Cmax in [3] worked out at 2.98 µM; in series [7] it was 790 nM. Besides, the Stability in series [5] amounted to 106%; in [6], 100%; in series [14], 102%. For the same molecule, the half-life in [20] was 6.66 min; in series [12], 14.3 min. Also, the bioavailability came out at 52% in series [8] and 13.3% in series [13]. In addition, the Vd in series [21] is 0.64 L/kg; in series [17] it was 1.25 L/kg. For the same molecule, the EC50 with Human coronavirus OC43 [1] stood at 136 nM; in the series with SARS-CoV-2, 64 nM. Moreover, the values for the clearance in series [22] and in series [18] were 79.3 mL/min/kg and 75.4 mL/min/kg, respectively. Besides, the values for the AUC in [11] and in series [15] were 2.31 µM·h and 0.553 µM·h, respectively. Also, the IC50 in [2] is 43 nM.

The values are drawn from ChEMBL document CHEMBL5316373, “Discovery of novel bicyclic[3.3.0]proline peptidyl α-ketoamides as potent 3CL-protease inhibitors for SARS-CoV-2” (Bioorg Med Chem Lett, 2023).
